# Reference: patent US20240308992A1 (Biopolar Youtang(Guangdong) Pharmaceutical Co., Ltd., priority 2021, published 2024)
# pIC50: −log10 of the molar value.
# Molecular target: T1, Drak2 (Homo sapiens, UniProt O94768)
# T1 sequence (O94768 1-372): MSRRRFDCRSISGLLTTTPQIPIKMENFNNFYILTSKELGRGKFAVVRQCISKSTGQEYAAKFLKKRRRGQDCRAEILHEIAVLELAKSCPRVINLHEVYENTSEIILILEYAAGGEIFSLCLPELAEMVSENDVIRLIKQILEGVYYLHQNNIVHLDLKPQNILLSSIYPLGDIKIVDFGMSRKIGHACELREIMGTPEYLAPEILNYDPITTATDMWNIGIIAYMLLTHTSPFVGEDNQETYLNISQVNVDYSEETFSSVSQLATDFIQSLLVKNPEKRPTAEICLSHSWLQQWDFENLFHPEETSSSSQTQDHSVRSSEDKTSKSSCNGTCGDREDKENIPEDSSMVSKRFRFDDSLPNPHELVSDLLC
# Test: Drak2 activity test, ADP-Glo kinase assay (Promega)
# Assay type: biochemical
# Conditions: inhibition of Drak2 kinase activity, 2 h room temperature, activity range classes, read-out: IC50_Drak2
row,pIC50,SMILES
1,7.00 to 7.96,"COc1cc(-c2cncc(-c3cc(NC(=O)CC4CCC4)cs3)n2)ccc1C(=O)N(C)C1CC2(C1)CN(C)C2 [Example B93, 4-(6-(4-(2-cyclobutylacetamido)thiophen-2-yl)pyrazin-2-yl)-2-methoxy-N-methyl-N-(2-methyl-2-azaspiro[3.3]heptan-6-yl)benzamide]"
2,7.00 to 7.96,"CCCCC(=O)Nc1csc(-c2cncc(-c3ccc(C(=O)Nc4nnn[nH]4)c(OC)c3)n2)c1 [Example B4, 2-methoxy-4-(6-(4-pentanamidothiophen-2-yl)pyrazin-2-yl)-N-(1H-tetrazol-5-yl)benzamide]"
3,6.00 to 7.00,"COc1cc(-c2cncc(-c3cc(NC(=O)CC4CCC4)cs3)n2)ccc1C(=O)Nc1cnn(C)c1OC [Example B43, 4-(6-(4-(2-cyclobutylacetamido)thiophen-2-yl)pyrazin-2-yl)-2-methoxy-N-(5-methoxy-1-methyl-1H-pyrazol-4-yl)benzamide]"
4,< 5.00,"COc1ccc(-c2cncc(NC3CCC(NC(=O)C4CCC4)CC3)n2)cc1OC (stereo not drawn) [Example D2, N-(4-((6-(3,4-dimethoxyphenyl)pyrazin-2-yl)amino)cyclohexyl)cyclobutanecarboxamide]"
5,6.00 to 7.00,"CCCCC(=O)Nc1csc(-c2cncc(-c3ccc(-c4cc(O)no4)c(OC)c3)n2)c1 [Example A36, N-(5-(6-(4-(3-hydroxyisoxazol-5-yl)-3-methoxyphenyl)pyrazin-2-yl)thiophen-3-yl)pentanamide]"
6,7.00 to 7.96,"CCCCC(=O)Nc1csc(-c2cncc(-c3ccc(C(=O)N(C)C4CCN(c5cnn(C)c5)CC4)c(OC)c3)n2)c1 [Example B71, 2-methoxy-N-methyl-N-(1-(1-methyl-1H-pyrazol-4-yl)piperidin-4-yl)-4-(6-(4-pentanamidothiophen-2-yl)pyrazin-2-yl)benzamide]"
7,6.00 to 7.00,"COc1ccc(-c2cncc(-c3cc(NC(=O)CC4CCCC4)cs3)n2)cc1OC [Example A33, 2-cyclopentyl-N-(5-(6-(3,4-dimethoxyphenyl)pyrazin-2-yl)thiophen-3-yl)acetamide]"
8,5.00 to 6.00,"COc1ccc(-c2cncc(-c3cc(NC(=O)C4CCC4)cs3)c2C#N)cc1OC [Example C2, N-(5-(4-cyano-5-(3,4-dimethoxyphenyl)pyridin-3-yl)thiophen-3-yl)cyclobutanecarboxamide]"
9,7.00 to 7.96,"COc1cc(-c2cncc(-c3cc(NC(=O)CC4CCCC4)cs3)n2)ccc1C(=O)Nc1nnco1 [Example B64, 4-(6-(4-(2-cyclopentylacetamido)thiophen-2-yl)pyrazin-2-yl)-2-methoxy-N-(1,3,4-oxadiazol-2-yl)benzamide]"
10,6.00 to 7.00,"CCC(=O)Nc1csc(-c2cncc(-c3ccc(C(=O)Nc4nnn[nH]4)c(OC)c3)n2)c1 [Example B11, 2-methoxy-4-(6-(4-propionamidothiophen-2-yl)pyrazin-2-yl)-N-(1H-tetrazol-5-yl)benzamide]"
11,7.00 to 7.96,"CCCCC(=O)Nc1csc(-c2cncc(-c3ccc(O)c(OC)c3)n2)c1 [Example 181, N-{5-[6-(4-hydroxy-3-methoxyphenyl)pyrazin-2-yl]thiophen-3-yl}pentanamide]"
12,7.00 to 7.96,"COc1cc(-c2cncc(-c3cc(NC(=O)CC4CCC4)cs3)n2)ccc1C(=O)N1CCN(C2CCN(C)CC2)CC1 [Example B51, 2-cyclobutyl-N-(5-(6-(3-methoxy-4-(4-(1-methylpiperidin-4-yl)piperazine-1-carbonyl)phenyl)pyrazin-2-yl)thiophen-3-yl)acetamide]"
13,7.00 to 7.96,"COc1cc(-c2cncc(-c3cc(NC(=O)CC4CCC4)cs3)n2)ccc1C(=O)N(C)C1CCN(C2CC2)CC1 [Example B96, 4-(6-(4-(2-cyclobutylacetamido)thiophen-2-yl)pyrazin-2-yl)-N-(1-cyclopropylpiperidin-4-yl)-2-methoxy-N-methylbenzamide]"
14,6.00 to 7.00,"O=C(CC1CCC1)Nc1csc(-c2cncc(-c3ccc4cnn(C5CC5)c4c3)n2)c1 [Example 212, 2-Cyclobutyl-N-{5-[6-(1-cyclopropylindazol-6-yl)pyrazin-2-yl]thiophen-3-yl}acetamide]"
15,< 5.00,"CCCCCCCC(=O)Nc1csc(-c2cncc(-c3ccc(C(=O)Nc4nnn[nH]4)c(OC)c3)n2)c1 [Example B18, 2-methoxy-4-(6-(4-octanamidothiophen-2-yl)pyrazin-2-yl)-N-(1H-tetrazol-5-yl)benzamide]"
16,7.00 to 7.96,"COc1cc(-c2cncc(-c3cc(NC(=O)NC4CCC4)cs3)n2)ccc1C(=O)N(C)C1CCN(C)CC1 [Example F1, 4-(6-(4-(3-cyclobutylurea)thiophen-2-yl)pyrazin-2-yl)-2-methoxy-N-methyl-N-(1-methylpiperidin-4-yl) benzamide]"
17,7.00 to 7.96,"COc1cc(-c2cncc(-c3cc(NC(=O)CC4CCC4)cs3)n2)ccc1OCCN1CCn2ncnc2C1 [Example 175, 2-cyclobutyl-N-{5-[6-(3-methoxy-4-{[2-(5,6,7,8-tetrahydro [1,2,4]triazolo [1,5-a]pyrazin-7-yl)ethyl]oxy}phenyl)pyrazin-2-yl]thiophen-3-yl} acetamide]"

row,pIC50,SMILES
1,> 8.00,"COc1cc(-c2cncc(-c3cc(NC(=O)CC4CCC4)cs3)n2)ccc1OCCN1CCCC1 [Example 189, 2-Cyclobutyl-N-(5-(6-(3-methoxy-4-(2-(pyrrolidin-1-yl)ethoxy)phenyl)pyrazin-2-yl)thiophen-3-yl) acetamide]"
2,> 8.00,"CCCCC(=O)Nc1csc(-c2cncc(-c3cn(C)nc3C)n2)c1 [Example 216, N-{5-[6-(1,3-dimethylpyrazol-4-yl)pyrazin-2-yl]thiophen-3-yl}pentanamide]"
3,> 8.00,"COc1cc(-c2cncc(-c3cc(NC(=O)CC4CCC4)cs3)n2)ccc1OCC(=O)N1CCOCC1 [Example 191, 2-Cyclobutyl-N-{5-[6-(3-methoxy-4-{[2-(morpholin-4-yl)-2-oxoethyl]oxy}phenyl)pyrazin-2-yl]thiophen-3-yl} acetamide]"
4,> 8.00,"CCCCC(=O)Nc1csc(-c2cncc(-c3ccc(C(=O)N(C)C4CCN(C(C)C)CC4)c(OC)c3)n2)c1 [Example B68, N-(1-isopropylpiperidin-4-yl)-2-methoxy-N-methyl-4-(6-(4-pentanamidothiophen-2-yl)pyrazin-2-yl)benzamide]"
5,6.00 to 7.00,"O=C(CC1CCC1)Nc1csc(-c2cncc(-c3ccnc4c3ccn4Cc3ccccc3)n2)c1 [Example 211, N-{5-[6-(1-benzylpyrrolo [2,3-b]pyridin-4-yl)pyrazin-2-yl]thiophen-3-yl}-2-cyclobutyl Acetamide]"
6,7.00 to 7.96,"COc1cc(-c2cncc(-c3cc(NC(=O)CC4CCC4)cs3)n2)ccc1C(=O)Nc1nnco1 [Example B62, 4-(6-(4-(2-cyclobutylacetamido)thiophen-2-yl)pyrazin-2-yl)-2-methoxy-N-(1,3,4-oxadiazol-2-yl)benzamide]"
7,6.00 to 7.00,"CCCCC(=O)Nc1csc(-c2cncc(-c3ccc(C(=O)N(C)C4CCN(c5ncccn5)CC4)c(OC)c3)n2)c1 [Example B72, 2-methoxy-N-methyl-4-(6-(4-pentanamidothiophen-2-yl)pyrazin-2-yl)-N-(1-(pyrimidin-2-yl)piperidin-4-yl)benzamide]"
8,6.00 to 7.00,"COc1cc(-c2cncc(-c3cc(NC(=O)CC4CCC4)cs3)n2)ccc1CN1CCOCC1 [Example B35, 2-cyclobutyl-N-(5-(6-(3-methoxy-4-(morpholinomethyl)phenyl)pyrazin-2-yl)thiophen-3-yl)acetamide]"
9,7.00 to 7.96,"O=C(CC1CCC1)Nc1csc(-c2cncc(-c3ccc4cn[nH]c4c3)n2)c1 [Example A52, N-(5-(6-(1H-indazol-6-yl)pyrazin-2-yl)thiophen-3-yl)-2-cyclobutylacetamide]"
10,6.00 to 7.00,"COc1cc(-c2cncc(-c3cc(NC(=O)CC4COC4)cs3)n2)ccc1C(=O)N(C)C1CCN(C)CC1 [Example B89, 2-methoxy-N-methyl-N-(1-methylpiperidin-4-yl)-4-(6-(4-(2-(oxetan-3-yl)acetamido)thiophen-2-yl)pyrazin-2-yl)benzamide]"
11,7.00 to 7.96,"CCCCC(=O)Nc1csc(-c2cncc(-c3ccc(C(=O)N4CCN(C5CCN(C)CC5)CC4)c(OC)c3)n2)c1 [Example B47, N-(5-(6-(3-methoxy-4-(4-(1-methylpiperidin-4-yl)piperazine-1-carbonyl)phenyl)pyrazin-2-yl)thiophen-3-yl)pentanamide]"
12,7.00 to 7.96,"COc1cc(-c2cncc(-c3cc(NC(=O)CC4CC(F)(F)C4)cs3)n2)ccc1OCCN1CCOCC1 [Example 185, 2-(3,3-difluorocyclobutyl)-N-(5-(6-(3-methoxy-4-(2-morpholinylethoxy)phenyl)pyrazin-2-yl)thiophen-3-yl) acetamide]"
13,7.00 to 7.96,"COc1cc(-c2cncc(-c3cc(NC(=O)CC4CC(F)(F)C4)cs3)n2)ccc1C(=O)N(C)C1CC2(C1)CN(C)C2 (stereo not drawn) [Example 202, 4-[6-(4-{[2-(3,3-difluorocyclobutyl)acetyl]amino}thiophen-2-yl)pyrazin-2-yl]-2-methoxy-N-methyl-N-(2-methyl-2-azaspiro [3.3]hept-6-yl) benzamide]"
14,7.00 to 7.96,"COc1cc(-c2cncc(-c3cc(NC(=O)CC4CC4)cs3)n2)ccc1C(=O)N1CCN(C2CCN(C)CC2)CC1 [Example B50, 2-cyclopropyl-N-(5-(6-(3-methoxy-4-(4-(1-methylpiperidin-4-yl)piperazine-1-carbonyl)phenyl)pyrazin-2-yl)thiophen-3-yl)acetamide]"
15,6.00 to 7.00,"CCCCC(=O)Nc1csc(-c2cncc(-c3ccc(C(=O)Nc4cn(C)nc4OC)c(OC)c3)n2)c1 [Example B41, 2-methoxy-N-(3-methoxy-1-methyl-1H-pyrazol-4-yl)-4-(6-(4-pentanamidothiophen-2-yl)pyrazin-2-yl)benzamide]"
16,6.00 to 7.00,"CCCCC(=O)Nc1csc(-c2cncc(-c3ccco3)n2)c1 [Example 220, N-{5-[6-(furyl-2-yl)pyrazin-2-yl]thiophen-3-yl}pentanamide]"
